Assay results as given in ChEMBL document CHEMBL1671854, “ramR mutations involved in efflux-mediated multidrug resistance in Salmonella enterica serovar Typhimurium” (2008).

Key:
Assay type in all cases: functional, Salmonella enterica subsp. enterica serovar Typhimurium
Salmonella typhimurium [1] = experiment: Antimicrobial activity against multidrug-resistant Salmonella enterica serovar Typhimurium 902SA92 harboring GyrA S83A and D87N, GyrB S464F and ParC S80I mutant genes by agar doubling dilution method
Salmonella typhimurium [2] = experiment: Antimicrobial activity against multidrug-resistant Salmonella enterica serovar Typhimurium 902SA92 harboring plasmid encoded RamR gene, GyrA S83A and D87N, GyrB S464F and ParC S80I mutant genes by agar doubling dilution method
Salmonella typhimurium [3] = experiment: Antimicrobial activity against ramA::kan-deficient Salmonella enterica serovar Typhimurium 902SA92 harboring GyrA S83A and D87N, GyrB S464F and ParC S80I mutant genes by agar doubling dilution method
Salmonella typhimurium [4] = experiment: Antimicrobial activity against multidrug-resistant Salmonella enterica serovar Typhimurium 102SA00 harboring GyrA S83A and D87N, GyrB S464F and ParC S80I mutant genes by agar doubling dilution method
Salmonella typhimurium [5] = experiment: Antimicrobial activity against multidrug-resistant Salmonella enterica serovar Typhimurium 102SA00 harboring plasmid encoded RamR gene, GyrA S83A and D87N, GyrB S464F and ParC S80I mutant genes by agar doubling dilution method
Salmonella typhimurium [6] = experiment: Antimicrobial activity against ramA::kan-deficient Salmonella enterica serovar Typhimurium 102SA00 harboring GyrA S83A and D87N, GyrB S464F and ParC S80I mutant genes by agar doubling dilution method
Salmonella typhimurium [7] = experiment: Antimicrobial activity against multidrug-resistant Salmonella enterica serovar Typhimurium BN10055 harboring GyrA S83Y mutant gene by agar doubling dilution method
Salmonella typhimurium [8] = experiment: Antimicrobial activity against multidrug-resistant Salmonella enterica serovar Typhimurium BN10055 harboring plasmid encoded RamR gene, GyrA S83Y mutant gene by agar doubling dilution method
Salmonella typhimurium [9] = experiment: Antimicrobial activity against ramA::kan-deficient Salmonella enterica serovar Typhimurium BN10055 harboring GyrA S83Y mutant gene by agar doubling dilution method
Salmonella typhimurium [10] = experiment: Antimicrobial activity against multidrug-resistant Salmonella enterica serovar Typhimurium 543SA98 harboring GyrA […] mutant gene by agar doubling dilution method
Salmonella typhimurium [11] = experiment: Antimicrobial activity against multidrug-resistant Salmonella enterica serovar Typhimurium 543SA98 harboring plasmid encoded RamR gene, GyrA S83Y mutant gene by agar doubling dilution method
Salmonella typhimurium [12] = experiment: Antimicrobial activity against ramA::kan-deficient Salmonella enterica serovar Typhimurium 543SA98 harboring GyrA S83Y mutant gene by agar doubling dilution method
Salmonella typhimurium [13] = experiment: Antimicrobial activity against multidrug-resistant Salmonella enterica serovar Typhimurium BN9945 by agar doubling dilution method
Salmonella typhimurium [14] = experiment: Antimicrobial activity against multidrug-resistant Salmonella enterica serovar Typhimurium BN9945 harboring plasmid encoded RamR gene by agar doubling dilution method
Salmonella typhimurium [15] = experiment: Antimicrobial activity against ramA::kan-deficient Salmonella enterica serovar Typhimurium BN9945 by agar doubling dilution method
Salmonella typhimurium [16] = experiment: Antimicrobial activity against multidrug-resistant Salmonella enterica serovar Typhimurium BN9181 by agar doubling dilution method
Salmonella typhimurium [17] = experiment: Antimicrobial activity against multidrug-resistant Salmonella enterica serovar Typhimurium BN9181 harboring plasmid encoded RamR gene by agar doubling dilution method
Salmonella typhimurium [18] = experiment: Antimicrobial activity against ramA::kan-deficient Salmonella enterica serovar Typhimurium BN9181 by agar doubling dilution method
Salmonella typhimurium [19] = experiment: Antimicrobial activity against Salmonella enterica serovar Typhimurium S/921495 by agar doubling dilution method
Salmonella typhimurium [20] = experiment: Antimicrobial activity against marR::kan-deficient Salmonella enterica serovar Typhimurium S/921495 by agar doubling dilution method
Salmonella typhimurium [21] = experiment: Antimicrobial activity against marR-deficient Salmonella enterica serovar Typhimurium S/921495 by agar doubling dilution method
Salmonella typhimurium [22] = experiment: Antimicrobial activity against marA::kan-deficient Salmonella enterica serovar Typhimurium S/921495 by agar doubling dilution method
Salmonella typhimurium [23] = experiment: Antimicrobial activity against soxR::kan-deficient Salmonella enterica serovar Typhimurium S/921495 by agar doubling dilution method
Salmonella typhimurium [24] = experiment: Antimicrobial activity against soxS::kan-deficient Salmonella enterica serovar Typhimurium S/921495 by agar doubling dilution method
Salmonella typhimurium [25] = experiment: Antimicrobial activity against Salmonella enterica serovar Typhimurium S/921495 harboring plasmid encoded RamR gene by agar doubling dilution method
Salmonella typhimurium [26] = experiment: Antimicrobial activity against ramR-deficient Salmonella enterica serovar Typhimurium S/921495 harboring plasmid encoded RamR gene by agar doubling dilution method
Salmonella typhimurium [27] = experiment: Antimicrobial activity against ramA::kan-deficient Salmonella enterica serovar Typhimurium S/921495 by agar doubling dilution method
Salmonella typhimurium [28] = experiment: Antimicrobial activity against Salmonella enterica serovar Typhimurium BN18 by agar doubling dilution method
Salmonella typhimurium [29] = experiment: Antimicrobial activity against Salmonella enterica serovar Typhimurium BN18 harboring plasmid encoded RamR gene by agar doubling dilution method
Salmonella typhimurium [30] = experiment: Antimicrobial activity against ramA::kan-deficient Salmonella enterica serovar Typhimurium BN18 by agar doubling dilution method
Salmonella typhimurium [31] = experiment: Antimicrobial activity against Salmonella enterica serovar Typhimurium BN18/21 by agar doubling dilution method
Salmonella typhimurium [32] = experiment: Antimicrobial activity against Salmonella enterica serovar Typhimurium BN18/21 harboring plasmid encoded RamR gene by agar doubling dilution method
Salmonella typhimurium [33] = experiment: Antimicrobial activity against ramA::kan-deficient Salmonella enterica serovar Typhimurium BN18/21 by agar doubling dilution method
Salmonella typhimurium [34] = experiment: Antimicrobial activity against Salmonella enterica serovar Typhimurium BN18/41 harboring GyrA G81C,acrR mutant genes by agar doubling dilution method
Salmonella typhimurium [35] = experiment: Antimicrobial activity against Salmonella enterica serovar Typhimurium BN18/41 harboring plasmid encoded RamR gene, GyrA G81C,acrR mutant genes by agar doubling dilution method
Salmonella typhimurium [36] = experiment: Antimicrobial activity against ramA::kan-deficient Salmonella enterica serovar Typhimurium BN18/41 harboring plasmid encoded RamR gene, GyrA G81C,acrR mutant genes by agar doubling dilution method
Salmonella typhimurium [37] = experiment: Antimicrobial activity against Salmonella enterica serovar Typhimurium BN18/71 harboring GyrA G81C, acrR mutant genes by agar doubling dilution method
Salmonella typhimurium [38] = experiment: Antimicrobial activity against Salmonella enterica serovar Typhimurium BN18/71 harboring plasmid encoded RamR gene, GyrA G81C,acrR mutant genes by agar doubling dilution method
Salmonella typhimurium [39] = experiment: Antimicrobial activity against ramA::kan-deficient Salmonella enterica serovar Typhimurium BN18/71 harboring plasmid encoded RamR gene, GyrA G81C,acrR mutant genes by agar doubling dilution method
Salmonella typhimurium [40] = experiment: Antimicrobial activity against ramR::kan-deficient Salmonella enterica serovar Typhimurium S/921495 by agar doubling dilution method
Salmonella typhimurium [41] = experiment: Antimicrobial activity against ramR-deficient Salmonella enterica serovar Typhimurium S/921495 by agar doubling dilution method

Measured: MIC

O=C(O)c1cn(C2CC2)c2cc(N3CCNCC3)c(F)cc2c1=O [CIPROFLOXACIN]
8 µg/mL: Salmonella typhimurium [2] | Salmonella typhimurium [3] | Salmonella typhimurium [5] | Salmonella typhimurium [6] | Salmonella typhimurium [37]
0.5 µg/mL: Salmonella typhimurium [10] | Salmonella typhimurium [13] | Salmonella typhimurium [35] | Salmonella typhimurium [36]
0.0075 µg/mL: Salmonella typhimurium [18]
0.125 µg/mL: Salmonella typhimurium [11] | Salmonella typhimurium [12] | Salmonella typhimurium [14] | Salmonella typhimurium [15] | Salmonella typhimurium [31]
0.06 µg/mL: Salmonella typhimurium [32] | Salmonella typhimurium [33] | Salmonella typhimurium [40] | Salmonella typhimurium [41]
1 µg/mL: Salmonella typhimurium [7] | Salmonella typhimurium [8]
0.25 µg/mL: Salmonella typhimurium [9]
2 µg/mL: Salmonella typhimurium [34] | Salmonella typhimurium [38] | Salmonella typhimurium [39]
32 µg/mL: Salmonella typhimurium [1] | Salmonella typhimurium [4]
0.015 µg/mL: all other assays above

CS(=O)(=O)c1ccc([C@@H](O)[C@@H](CF)NC(=O)C(Cl)Cl)cc1 [FLORFENICOL]
2 µg/mL: Salmonella typhimurium [30]
512 µg/mL: Salmonella typhimurium [10]
32 µg/mL: Salmonella typhimurium [9] | Salmonella typhimurium [16] | Salmonella typhimurium [17] | Salmonella typhimurium [18]
64 µg/mL: Salmonella typhimurium [14] | Salmonella typhimurium [15] | Salmonella typhimurium [34] | Salmonella typhimurium [37]
8 µg/mL: Salmonella typhimurium [35] | Salmonella typhimurium [36] | Salmonella typhimurium [38] | Salmonella typhimurium [39]
16 µg/mL: Salmonella typhimurium [1] | Salmonella typhimurium [4] | Salmonella typhimurium [31] | Salmonella typhimurium [40] | Salmonella typhimurium [41]
128 µg/mL: Salmonella typhimurium [7] | Salmonella typhimurium [8] | Salmonella typhimurium [11] | Salmonella typhimurium [12] | Salmonella typhimurium [13]
4 µg/mL: all other assays above
